Measured values: patent US9073858B2, “Methods of targeted drug development” (priority 2010, dated 2015)

Tests used:
[1] = Stability on incubation with mouse liver microsomes (MLM); assay type: in vitro ADME; details: percentage left after incubation with mouse liver microsomes for 30 minutes
Method: (§1) Stability of hydroxyquinoline analogs were determined (see e.g., TABLE 18). MLM represents the percentage left after incubation with mouse liver microsomes for 30 minutes. HLM represents the percentage left after incubation with human liver microsomes for 30 minutes.
(§2) Stability of analogs having a benzaldehyde derived ring were determined (see e.g., TABLE 18). MLM represents the percentage left after incubation with mouse liver microsomes for 30 minutes. HLM represents the percentage left after incubation with human liver microsomes for 30 minutes.

[2] = Stability on incubation with human liver microsomes (HLM); assay type: in vitro ADME; details: percentage left after incubation with human liver microsomes for 30 minutes
Method: as §1, §2

Structure (SMILES)	MLM % Remaining@ 30 Min [1] [%]	HLM % Remaining@ 30 Min [2] [%]
Oc1c(C(Nc2ccc(C(F)(F)F)cn2)c2ccc(F)cc2F)ccc2cccnc12 (centres unmarked) [AD4-13029]	77	76
Cc1ccnc(NC(c2ccc(Cl)c(Cl)c2)c2ccc3cccnc3c2O)c1 (centres unmarked) [AD4-12917]	11	53
Cc1cccc(NC(c2ccc3cccnc3c2O)c2c(F)cccc2Cl)n1 (centres unmarked) [AD4-12959]	15	42
Cc1ccnc(NC(c2ccccc2Cl)c2ccc3cccnc3c2O)c1 (centres unmarked) [AD4-12907]	5	14
Cc1cccc(NC(c2ccc(Cl)cc2Cl)c2ccc3cccnc3c2O)n1 (centres unmarked) [AD4-12911]	17	57
Cc1cccc(NC(c2cc(Cl)ccc2Cl)c2ccc3cccnc3c2O)n1 (centres unmarked) [AD4-12955]	41	61
Cc1cccc(NC(c2cccc(C(F)(F)F)c2)c2ccc3cccnc3c2O)n1 (centres unmarked) [AD4-12903]	18	46
Cc1cccc(NC(c2cc(Cl)cc(Cl)c2Cl)c2ccc3cccnc3c2O)n1 (centres unmarked) [AD4-13023]	60	95
Cc1cccc(NC(c2ccc(OC(F)(F)F)cc2)c2ccc3cccnc3c2O)n1 (centres unmarked) [AD4-12902]	17	72
Cc1cccc(NC(c2ccc(Cl)c(Cl)c2)c2ccc3cccnc3c2O)n1 (centres unmarked) [AD4-12916]	26	80
Cc1ccnc(NC(c2cc(Cl)cc(Cl)c2)c2ccc3cccnc3c2O)c1 (centres unmarked) [AD4-12915]	25	71
COc1ccc(C(Nc2cccc(C)n2)c2ccc3cccnc3c2O)cc1O (centres unmarked) [AD4-12909]	13	50
Cc1cccc(NC(c2ccc3cccnc3c2O)c2c(F)c(F)cc(F)c2F)n1 (centres unmarked) [AD4-12918]	15	51
Oc1c(C(Nc2cc(Cl)ccn2)c2ccc(F)cc2F)ccc2cccnc12 (centres unmarked) [AD4-13045]	26	77
Cc1cccc(NC(c2cccc(Cl)c2Cl)c2ccc3cccnc3c2O)n1 (centres unmarked) [AD4-12905]	23	63

More lines, now with the values ahead:

MLM % Remaining@ 30 Min [1] [%]	HLM % Remaining@ 30 Min [2] [%]	Structure (SMILES)
58	93	Oc1c(C(Nc2ccc(F)cn2)c2ccc(C(F)(F)F)c(F)c2)ccc2cccnc12 (centres unmarked) [AD4-13061]
57	100	Oc1c(C(Nc2ccc(Cl)cn2)c2ccc(C(F)(F)F)c(F)c2)ccc2cccnc12 (centres unmarked) [AD4-13055]
40	99	Cc1cc(NC(c2cc(Cl)cc(Cl)c2)c2ccc3cccnc3c2O)ncc1F (centres unmarked) [AD4-13114]
13	64	Cc1cccc(NC(c2cc(Cl)cc(Cl)c2)c2ccc3ccc(C)nc3c2O)n1 (centres unmarked) [AD4-13075]
64	92	Cc1cc(Cl)cnc1NC(c1ccc2cccnc2c1O)c1c(F)c(F)cc(F)c1F (centres unmarked) [AD4-13059]
97	100	Cc1nc(NC(c2ccc(Cl)c(Cl)c2)c2ccc3cccnc3c2O)c(Cl)cc1Cl (centres unmarked) [AD4-13202]
40	72	Oc1c(C(Nc2ccc(C(F)(F)F)nc2)c2ccc(C(F)(F)F)c(F)c2)ccc2cccnc12 (centres unmarked) [AD4-13051]
46	80	Oc1c(C(Nc2ccc(Cl)cn2)c2ccc(Cl)c(Cl)c2)ccc2cccnc12 (centres unmarked) [AD4-13054]
46	89	Oc1c(C(Nc2ccc(Cl)cn2)c2ccc(Cl)c(C(F)(F)F)c2)ccc2cccnc12 (centres unmarked) [AD4-13067]
28	70	Cc1cccc(NC(c2cc(Cl)cc(Cl)c2)c2cc(Cl)c3cccnc3c2O)n1 (centres unmarked) [AD4-13076]
